# Assay: hydrogen peroxide decomposition assay of catalase recovered from PLGA matrices
# Type: biochemical
# Conditions: catalase removed from PLGA matrices by degradation of the polymer; processed in supercritical CO2 at 45° C. and 200 bar, 30 minutes
# Description: In a specific example of the use of the invention particles of the protein catalase (ca mean diameter 50 micron) are mixed with the biodegradable polymer poly(DL-lactide-co-glycolide) (PLGA) as per example 3, in the presence of super critical CO2 at 45° C. and 200 bar. After agitation for 30 minutes, the autoclave was depressurized leading to solid dispersions of a monolith form, in which catalase particles are intimately mixed with the biodegradable polymer. FIGS. 3a) and 3b) are scanning electron microscopy images at respective higher and lower magnifications of 10 micron (particles and micropores visible) and 50 micron (particles embedded in “channels”).
# Removal of the catalase from the matrices by degradation of the polymer enabled the activity of the enzyme to be quantified using a hydrogen peroxide decomposition assay.
substance,measurement,value
catalase,activity of the enzyme after SCF processing,lost no appreciable activity
